# What was measured:
# [1] = target: T1, human recombinant monoamine oxidase B (MAO B) (Homo sapiens, UniProt P27338); experiment: Two-step luminescent MAO assay with luciferin derivative; assay type: biochemical; conditions: fit of Tables 23-24 (TableCurve)
# T1 construct: purchased Sigma Chemical Company M-7441; host or cells: baculovirus infected insect cells (microsomes)
# T1 sequence (P27338 1-520): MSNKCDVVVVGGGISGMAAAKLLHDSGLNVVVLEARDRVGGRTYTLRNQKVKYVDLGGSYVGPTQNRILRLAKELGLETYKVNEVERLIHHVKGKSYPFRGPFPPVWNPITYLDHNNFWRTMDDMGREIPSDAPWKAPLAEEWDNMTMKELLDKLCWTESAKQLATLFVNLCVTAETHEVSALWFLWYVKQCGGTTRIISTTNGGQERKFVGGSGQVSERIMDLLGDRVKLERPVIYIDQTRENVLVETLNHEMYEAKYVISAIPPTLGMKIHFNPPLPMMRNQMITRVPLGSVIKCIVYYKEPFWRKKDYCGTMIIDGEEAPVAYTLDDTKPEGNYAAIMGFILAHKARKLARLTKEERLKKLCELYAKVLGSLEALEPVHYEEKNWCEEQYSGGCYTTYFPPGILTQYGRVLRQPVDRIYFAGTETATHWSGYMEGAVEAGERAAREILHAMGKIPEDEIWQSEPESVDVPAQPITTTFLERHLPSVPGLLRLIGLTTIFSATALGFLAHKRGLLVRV
# [2] = target: T2, QuantiLum Luciferase (Photinus pyralis, UniProt P08659); experiment: Scaffolds: light emission of luciferin derivatives with QuantiLum luciferase alone, + Co A, + DTT, + Co A and DTT; assay type: biochemical, firefly
# T2 construct: purchased Promega Corporation E170
# T2 sequence (P08659 whole entry): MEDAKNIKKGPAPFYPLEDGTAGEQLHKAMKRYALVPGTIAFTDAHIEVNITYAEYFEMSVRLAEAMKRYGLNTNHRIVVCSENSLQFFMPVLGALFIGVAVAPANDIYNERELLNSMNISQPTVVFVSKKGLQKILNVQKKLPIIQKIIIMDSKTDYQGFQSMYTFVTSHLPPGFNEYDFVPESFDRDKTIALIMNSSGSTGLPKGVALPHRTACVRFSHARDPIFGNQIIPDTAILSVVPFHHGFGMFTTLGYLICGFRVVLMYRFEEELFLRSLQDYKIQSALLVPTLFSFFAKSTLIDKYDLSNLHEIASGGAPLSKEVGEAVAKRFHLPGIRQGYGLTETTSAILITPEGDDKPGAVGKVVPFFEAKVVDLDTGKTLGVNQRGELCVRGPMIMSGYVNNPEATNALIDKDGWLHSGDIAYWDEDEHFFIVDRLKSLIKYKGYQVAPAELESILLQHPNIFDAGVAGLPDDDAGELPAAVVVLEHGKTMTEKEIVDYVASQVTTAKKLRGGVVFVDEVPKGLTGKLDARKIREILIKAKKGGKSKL
# Procedure: The DTT, Coenzyme A, and QuantiLum stock solutions are the same as those described herein.
# This solution was diluted 1:1 with water to produce an enzyme solution labeled "No addition." This solution was diluted 1:1 with 400 mM DTT, pH 8.0 to produce a solution labeled +DTT. This solution was diluted 1:1 with 4 mM Coenzyme A to produce a solution labeled + Co A. Finally, this solution was diluted 1:1 with a solution having both 4 mM Coenzyme A and 400 mM DTT to produce a solution labeled +Co A & DTT.
# 50 µl samples of these solutions were placed in the wells of luminometer microtiter plates, row A to row G, respeutivly. Row H of the plates was given 50 µl of water.
# Reactions in these plates were initiated by addition of 50 µl of solution containing QuantiLum luciferase using a 12 channel micropipette. The solutions added to the rows were: columns 1, 5, and 9 - no addition solution; columns 2, 6, and 10 - + Co A solution; columns 3, 7, and 11 + DTT solution, and; columns 4, 8, and 12 - + Co A and DTT solution. After addition of the enzyme solution to the first row on every plate, a timer was started. After addition of the enzyme solution to the last row on each plate, the plate was sealed and read on a Veritas luminometer.
# [3] = target: T3, human recombinant monoamine oxidase A (MAO A) (Homo sapiens, UniProt P21397); experiment: Two-step luminescent MAO assay with luciferin derivative; conditions: for RLUmax: fit of Tables 23-24 (TableCurve)
# T3 sequence (P21397 1-527): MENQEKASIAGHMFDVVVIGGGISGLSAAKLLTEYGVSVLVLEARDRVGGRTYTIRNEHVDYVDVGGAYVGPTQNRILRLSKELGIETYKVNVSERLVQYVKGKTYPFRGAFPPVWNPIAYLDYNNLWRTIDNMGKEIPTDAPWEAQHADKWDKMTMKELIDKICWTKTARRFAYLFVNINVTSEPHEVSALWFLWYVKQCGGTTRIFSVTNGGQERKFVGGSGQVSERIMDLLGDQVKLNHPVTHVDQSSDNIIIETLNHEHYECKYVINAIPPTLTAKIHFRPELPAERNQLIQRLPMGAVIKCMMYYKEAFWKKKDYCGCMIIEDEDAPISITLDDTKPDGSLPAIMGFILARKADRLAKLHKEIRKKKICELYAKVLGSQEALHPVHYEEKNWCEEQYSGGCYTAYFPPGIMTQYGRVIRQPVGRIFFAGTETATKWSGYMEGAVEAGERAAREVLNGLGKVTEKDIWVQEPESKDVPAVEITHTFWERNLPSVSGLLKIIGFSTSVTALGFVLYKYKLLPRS
# [4] = system: luciferase; experiment: No-enzyme control: activity of luciferase towards the luciferin derivative (background luminescence); conditions: wild type microsomes instead of FMO 3
# Procedure: The reactions (Table 1) were assembled by first adding the water and 1 M BisTris solutions in individual 0.5 ml microfuge tubes, then adding the other components except for the GST #3 solution. Finally, the GST #3 (Figure 12) solution was added to the reactions, the resulting solution was mixed, and the time of addition noted. […]
# The GST #3 addition was performed last and the solutions were mixed immediately after addition of GST #3. […] After mixing, the light produced by the solution was measured using a Turner TD 20/20 luminometer.
# After assembly, the enzyme stock solutions were diluted 1:10 into 10 mM HEPES, pH 7.5 and the following additions were made to the reactions.
# A 5 µl sample of the luciferol DMF solution was added to each of the reactions above and a timer was started upon the addition of the first luciferol/DMF solution to reaction 1. All reactions were kept at room temperature.
# After incubating 5 minutes at room temperature, the light produced by these samples was measured using a Turner TD 20 luminometer.
# To initiate the conversions, 5 µl of luciferol solution was added to reactions […], 6-9, and 11-15, and 10 µl of luciferol was added to reactions 5 and 10 and the tubes mixed after that addition. Immediately after luciferol addition to reaction 1, a timer was started and the time of luciferol addition to the other tubes noted. After mixing, reaction 11-15 were placed at 37°C.
# After incubating 10 minutes at room temperature, the light produced by these samples was read using a Turner TD 20 luminometer (Table 18).
# To initiate Step 1, 45 µl of enzyme and buffer were added to each well.
# Solution A and Solution B are components of the NADPH Regeneration System (V9510, Promega Corp., Madison WI). […] Solution B contains 40 units/ml glucose-6-phosphate dehydrogenase in 5 mM citrate pH 5.5.
# [5] = system: human recombinant flavin-containing monooxygenase 3 (FMO 3); experiment: Two-step luminescent FMO assay with luciferin derivative; assay type: biochemical
smiles,measurement,setting,value
"NCCCOc1ccc2nc(C3=N[C@@H](C(=O)O)CS3)sc2c1 [MAO-3, 6-Aminopropoxyluciferin]",RLUmax,[1],660
same,light emission values,"[2]; Derivative Conc. 1.07, Alone",94583
same,light emission values,"[2]; Derivative Conc. 1.07, Co A",122510
same,light emission values,"[2]; Derivative Conc. 1.07, Co A + DTT",52637
same,light emission values,"[2]; Derivative Conc. 1.07, DTT",111682
same,light emission values,"[2]; Derivative Conc. 3.13, Alone",131633
same,light emission values,"[2]; Derivative Conc. 3.13, Co A",176814
same,light emission values,"[2]; Derivative Conc. 3.13, Co A + DTT",171233
same,light emission values,"[2]; Derivative Conc. 3.13, DTT",200074
same,light emission values,"[2]; Derivative Conc. 6.25, Alone",201597
same,light emission values,"[2]; Derivative Conc. 6.25, Co A",321914
same,light emission values,"[2]; Derivative Conc. 6.25, Co A + DTT",82531
same,light emission values,"[2]; Derivative Conc. 6.25, DTT",348398
same,light emission values,"[2]; Derivative Conc. 12.5, Alone",252130
same,light emission values,"[2]; Derivative Conc. 12.5, Co A",467021
same,light emission values,"[2]; Derivative Conc. 12.5, Co A + DTT",509896
same,light emission values,"[2]; Derivative Conc. 12.5, DTT",525765
same,light emission values,"[2]; Derivative Conc. 25, Alone",272608
same,light emission values,"[2]; Derivative Conc. 25, Co A",588881
same,light emission values,"[2]; Derivative Conc. 25, DTT",733675
same,light emission values,"[2]; Derivative Conc. 50, Alone",179585
same,light emission values,"[2]; Derivative Conc. 50, Co A",444494
same,light emission values,"[2]; Derivative Conc. 50, Co A + DTT",865209
same,light emission values,"[2]; Derivative Conc. 50, DTT",868903
same,light emission values,"[2]; Derivative Conc. 100, Alone",348013
same,light emission values,"[2]; Derivative Conc. 100, Co A",741882
same,light emission values,"[2]; Derivative Conc. 100, Co A + DTT",1019425
same,light emission values,"[2]; Derivative Conc. 100, DTT",994617
same,RLUmax,[3],210
"CNCCCOc1ccc2nc(C3=N[C@@H](C(=O)O)CS3)ccc2c1 [MAO-7, 6-(3-methylaminopropoxy)quinolinyl-lucifexin]","relative light units, control",[4]; [MAO-7] 43 µM,1043 RLUs
same,"relative light units, control",[4]; [MAO-7] 86 µM,1585 RLUs
same,"relative light units, control",[4]; [MAO-7] 258 µM,3592 RLUs
same,"relative light units, control",[4]; [MAO-7] 344 µM,4486 RLUs
same,"relative light units, control",[4]; [MAO-7] 516 µM,6137 RLUs
same,"relative light units, control",[4]; [MAO-7] 688 µM,7213 RLUs
same,RLUmax,[1],48
same,"relative light units, FMO 3",[5]; [MAO-7] 43 µM,8220 RLUs
same,"relative light units, net FMO 3",[5]; [MAO-7] 43 µM,7177 RLUs
same,"relative light units, FMO 3",[5]; [MAO-7] 86 µM,13646 RLUs
same,"relative light units, net FMO 3",[5]; [MAO-7] 86 µM,12061 RLUs
same,"relative light units, FMO 3",[5]; [MAO-7] 258 µM,28987 RLUs
same,"relative light units, net FMO 3",[5]; [MAO-7] 258 µM,25395 RLUs
same,"relative light units, FMO 3",[5]; [MAO-7] 344 µM,34036 RLUs
same,"relative light units, net FMO 3",[5]; [MAO-7] 344 µM,29550 RLUs
same,"relative light units, FMO 3",[5]; [MAO-7] 516 µM,40329 RLUs
same,"relative light units, net FMO 3",[5]; [MAO-7] 516 µM,34192 RLUs
same,"relative light units, FMO 3",[5]; [MAO-7] 688 µM,42707 RLUs
same,"relative light units, net FMO 3",[5]; [MAO-7] 688 µM,35494 RLUs
same,Km,"[5]; fit of Table 33, CHES pH 9.5",200 ± 20 µM
same,RLUmax,[3],750
same,substrate specificity as indicated by the ratio RLUmax/Km,[3]; result in words,more specific substrate for MAO A

# Reference: EP1935986B1, “Luminogenic and fluorogenic compounds and methods to detect molecules or conditions” (priority 2005, dated 2006)
